Laboratory results from paper PMC10065799, “High-throughput profiling of sequence recognition by tyrosine kinases and SH2 domains using bacterial peptide display” (eLife, 2023).

Legend:
Grb2 SH2 domain = experiment: pTyr-Var library SH2 domain screen with SH2-dynabeads (enrichment scores)
Hck kinase domain = experiment: pTyr-Var library bacterial peptide display kinase screen (enrichment scores); type: biochemical, human
SHP2 C-SH2 domain = experiment: pTyr-Var library SH2 domain screen with SH2-dynabeads (enrichment scores)
FGFR3 kinase domain = experiment: pTyr-Var library bacterial peptide display kinase screen (enrichment scores); type: biochemical, human
MERTK kinase domain = experiment: as above; type: biochemical, human
Fer kinase domain = experiment: as above; type: biochemical, mouse; settings: for Screen: sheet "Fer", value of the variant peptide against its reference peptide in the pTyr-Var library screen with Fer;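 as to Fer hit?: Hit requires p below 0.05 and at least twofold variant vs reference change plus filters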;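 as to screen: log2 fold change in enrichment of variant over reference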
AncSZ kinase domain = experiment: as above; type: biochemical;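 as to AncSZ hit?: Hit requires p below 0.05 and at least twofold variant vs reference change plus filters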
[1] = system: 4G10 Platinum pan-phosphotyrosine antibody; experiment: Phosphorylated pTyr-Var library selection with biotinylated pan-phosphotyrosine antibody; type: binding, mouse; settings: enrichment score, sheet SH2-vs-peptide
Experimental: After the desired time of library phosphorylation, kinase activity was quenched with 25 mM EDTA and the cells were washed with PBS containing 0.2% BSA. Kinase-treated cells were then labeled with a 1:1000 dilution of biotinylated 4G10 Platinum anti-phosphotyrosine antibody (Millipore) for an hour on ice and washed with PBS containing 0.1% BSA and 2 mM EDTA (isolation buffer). The cells were finally resuspended in PBS containing 0.1% BSA. The phosphorylated, antibody-labeled cells were then mixed with magnetic beads from Dynabeads FlowComp Flexi kit (Invitrogen), at a ratio of 37.5 μL of washed beads per 50 μL of cell suspension, diluted into 450 μL of isolation buffer. The suspension was rotated at 4 °C for 30 minutes, then 375 μL of isolation buffer was added and the beads were separated from the bulk solution on a magnetic rack. The beads were washed once with 1 mL of isolation buffer, and then the supertantant were removed by aspiration. […] The bead/lysate mixture was centrifuged to pellet the beads and the mixture was stored at -20 °C.

c-Abl kinase domain = target: T1, c-Abl kinase domain (Mus musculus, UniProt P00520); experiment: pTyr-Var library bacterial peptide display kinase screen (enrichment scores); type: biochemical;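 as to c-Abl hit?: Hit requires p below 0.05 and at least twofold variant vs reference change plus filters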;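 as to screen: log2 fold change in enrichment of variant over reference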
T1 sequence (P00520 242-493 limits assumed): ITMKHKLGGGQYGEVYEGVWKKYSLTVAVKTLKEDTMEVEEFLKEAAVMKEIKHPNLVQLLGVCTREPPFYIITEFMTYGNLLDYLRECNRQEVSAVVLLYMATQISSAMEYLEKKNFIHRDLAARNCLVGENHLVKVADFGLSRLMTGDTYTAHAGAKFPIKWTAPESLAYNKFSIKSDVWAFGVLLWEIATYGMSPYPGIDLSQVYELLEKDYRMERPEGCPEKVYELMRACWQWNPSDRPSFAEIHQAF

c-Src kinase domain = c-Src kinase domain (Homo sapiens, UniProt P12931); experiment: as above; type: biochemical; settings: for Screen: sheet "Src";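 as to c-Src hit?: Hit requires p below 0.05 and at least twofold variant vs reference change plus filters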;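 as to screen: log2 fold change in enrichment of variant over reference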
FGFR1 kinase domain = experiment: as above; type: biochemical, human
Jak2 = experiment: as above; type: biochemical, human
EPHB1 kinase domain = experiment: as above; type: biochemical, human; settings: for Screen: sheet EPHB1, effect of the variant peptide relative to its reference peptide in the pTyr-Var library screen (enrichment scores)
EPHB2 kinase domain = experiment: as above; type: biochemical, human; settings: for Screen: sheet EPHB2;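 as to screen: log2 fold change in enrichment of variant over reference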
c-Src SH2 domain = c-Src SH2 domain (Homo sapiens, UniProt P12931); experiment: pTyr-Var library SH2 domain screen with SH2-dynabeads (enrichment scores); settings: sheet c-Src
Fes = experiment: pTyr-Var library bacterial peptide display kinase screen (enrichment scores); type: biochemical
Fyn kinase domain = experiment: as above; type: biochemical, human
[2] = pTyr-Var library, enrichment score, replicate 1
[3] = pTyr-Var library, enrichment score, replicate 3
[4] = pTyr-Var library, enrichment score, replicate 4
[5] = variant versus reference peptide
[6] = variant versus reference peptide, significant hit TRUE/FALSE
[7] = mean of log2(variant) minus mean of log2(reference)
[8] = mean of log2 enrichment of variant peptide, n = 5
[9] = pTyr-Var library, variant peptide enrichment, mean of n = 5
[10] = mean of log2 enrichment of variant peptide, n = 4
[11] = pTyr-Var library, variant peptide enrichment, mean of n = 4
[12] = mean of log2 of enrichment over R1-R4
[13] = variant peptide versus its reference peptide in the pTyr-Var library screen
[14] = effect of variant peptide relative to its reference peptide in the pTyr-Var library screen (enrichment scores)
[15] = effect of the variant peptide relative to its reference peptide in the pTyr-Var library screen

ATVQNYLPKCI [A2M_Y817_L815Q]
difference (Grb2 SH2 domain; Grb2 SH2, mean of log2(variant) minus mean of log2(reference)): -0.167
mean of log2(variant) (Grb2 SH2 domain; Grb2 SH2, mean of log2 enrichment of variant, R1-R3): -0.3239
hit? (Grb2 SH2 domain; Grb2 SH2, variant versus reference significant hit call): FALSE
var. mean (Grb2 SH2 domain; variant peptide enrichment score, Grb2 SH2, mean of R1-R3): 0.8266
Hck mean of log2(enrichment) (Hck kinase domain; mean of log2(variant) / mean of log2(reference), R1-R4): 0.3462
Hck enrich. R1 (Hck kinase domain; [2]): 0.3734
Hck enrich. R3 (Hck kinase domain; [3]): 0.3895
Hck enrich. R4 (Hck kinase domain; [4]): 0.2207
Hck difference (variant - reference) (Hck kinase domain; [5]): -0.2528
Hck hit? (Hck kinase domain; [6]): FALSE
difference (SHP2 C-SH2 domain; SHP2-C SH2, mean of log2(variant) minus mean of log2(reference)): -0.37
mean of log2(variant) (SHP2 C-SH2 domain; SHP2-C SH2, mean of log2 enrichment of variant, R1-R3): -0.8263
hit? (SHP2 C-SH2 domain; SHP2-C SH2, variant versus reference significant hit call): FALSE
var. mean (SHP2 C-SH2 domain; variant peptide enrichment score, SHP2-C SH2, mean of R1-R3): 0.5806
difference (FGFR3 kinase domain; [7]): -0.3951
mean of log2(variant) (FGFR3 kinase domain; [8]): -1.056
var. mean (FGFR3 kinase domain; [9]): 0.4887
difference (MERTK kinase domain; [7]): -0.01109
mean of log2(variant) (MERTK kinase domain; [10]): -1.438
var. mean (MERTK kinase domain; [11]): 0.3721
Fer mean of log2(enrichment) (Fer kinase domain; [12]): -1.311
Fer enrich. R1 (Fer kinase domain; [2]): 0.4446
Fer enrich. R3 (Fer kinase domain; [3]): 0.4557
Fer enrich. R4 (Fer kinase domain; [4]): 0.3278
Fer difference (mean log2 variant - mean log2 reference) (Fer kinase domain; [5]): -0.03599
Fer hit? (Fer kinase domain; [6]): FALSE
AncSZ mean of log2(enrichment) (AncSZ kinase domain; mean of log2 of enrichment over R1-R5): -0.7038
AncSZ enrich. R1 (AncSZ kinase domain; [2]): 0.6587
AncSZ enrich. R3 (AncSZ kinase domain; [3]): 0.7943
AncSZ enrich. R4 (AncSZ kinase domain; [4]): 0.5045
AncSZ enrich. R5 (AncSZ kinase domain; pTyr-Var library, enrichment score, replicate 5): 0.4741
AncSZ difference (mean log2 variant - mean log2 reference) (AncSZ kinase domain; [5]): -0.2377
AncSZ hit? (AncSZ kinase domain; [6]): FALSE
4G10 (mean) [1]: 0.5753
c-Abl mean of log2(enrichment) (c-Abl kinase domain; [12]): -0.576
c-Abl enrich. R1 (c-Abl kinase domain; [2]): 0.4837
c-Abl enrich. R3 (c-Abl kinase domain; [3]): 0.713
c-Abl enrich. R4 (c-Abl kinase domain; [4]): 0.6552
c-Abl hit? (c-Abl kinase domain; [6]): FALSE
c-Src mean of log2(enrichment) (c-Src kinase domain; [12]): -1.474
c-Src enrich. R1 (c-Src kinase domain; [2]): 0.3685
c-Src enrich. R3 (c-Src kinase domain; [3]): 0.3322
c-Src enrich. R4 (c-Src kinase domain; [4]): 0.416
c-Src difference (mean log2 variant - mean log2 reference) (c-Src kinase domain; [5]): -0.08063
c-Src hit? (c-Src kinase domain; [6]): FALSE
difference (FGFR1 kinase domain; [7]): -0.151
mean of log2(variant) (FGFR1 kinase domain; [8]): -1.149
var. mean (FGFR1 kinase domain; [9]): 0.4624
Jak2 mean of log2(enrichment) (Jak2; mean of log2 of enrichment over R1-R3): -0.5861
Jak2 enrich. R1 (Jak2; [2]): 0.5921
Jak2 enrich. R3 (Jak2; [3]): 0.5314
Jak2 difference (mean log2 variant - mean log2 reference) (Jak2; [5]): -0.3549
Jak2 hit? (Jak2; [6]): FALSE
difference (EPHB1 kinase domain; [7]): -0.7634
mean of log2(variant) (EPHB1 kinase domain; [10]): -1.369
var. mean (EPHB1 kinase domain; [11]): 0.3903
difference (EPHB2 kinase domain; [7]): -0.2469
mean of log2(variant) (EPHB2 kinase domain; [10]): -1.144
var. mean (EPHB2 kinase domain; [11]): 0.4818
difference (c-Src SH2 domain; [7]): -0.03544
mean of log2(variant) (c-Src SH2 domain; mean of log2 enrichment of variant peptide, R1-R3): -1.014
var. mean (c-Src SH2 domain; variant peptide, mean of R1-R3): 0.4965
Fes mean of log2(enrichment) (Fes; mean of log2 of enrichment over R1-R6): -0.2803
Fes difference (mean log2 variant - mean log2 reference) (Fes; [5]): -0.2401
Fyn mean of log2(enrichment) (Fyn kinase domain; [12]): -1.466
Fyn enrich. R1 (Fyn kinase domain; [2]): 0.4872
Fyn enrich. R3 (Fyn kinase domain; [3]): 0.3635
Fyn enrich. R4 (Fyn kinase domain; [4]): 0.2869
Fyn difference (mean log2 variant - mean log2 reference) (Fyn kinase domain; [5]): -0.247
Fyn hit? (Fyn kinase domain; [6]): FALSE

AVISVYDLVAF [PSEN1_Y256_V261F]
Screen (Fer kinase domain): 0.2851
Screen (c-Src kinase domain; [13]): 0.3764
Screen (EPHB1 kinase domain): 0.6578
Screen (EPHB2 kinase domain; [14]): 0.9519

DCVRMYELVHR [GLE1_Y135_G130D]
Screen (Fer kinase domain): 0.7012
Screen (EPHB1 kinase domain): -0.05786
Screen (EPHB2 kinase domain; [14]): -0.0869

DLNATYCTIQG [U2SURP_Y634_R635C]
Screen (c-Src kinase domain; [13]): 2.996
Screen (variant relative to reference peptide, measured in the pTyr-Var library screen) (EPHB1 kinase domain; sheet "EPHB1", variant seq vs reference seq, bacterial peptide display enrichment): 3.639
Screen (EPHB2 kinase domain; effect of the variant relative to its reference peptide in the pTyr-Var library screen): 3.025

EDEGLYTVRVP [MYOM3_Y343_M344T]
Screen (Fer kinase domain): -0.4796
Screen (c-Src kinase domain; [13]): -0.00676
Screen (EPHB1 kinase domain): -1.202
Screen (EPHB2 kinase domain; [14]): -1.314

EEVPLYESATT [DCC_Y809_G805E]
Screen (Fer kinase domain): -0.3858
Screen (EPHB1 kinase domain): -0.9244
Screen (EPHB2 kinase domain; [14]): -0.8416

FFSSEYHCVGG [CTSC_Y345_Y347C_YF]
Screen (c-Abl kinase domain; fig5-data2, sheet "Abl", Screen for the variant/reference peptide pair, pTyr-Var library): 0.5786
Screen (c-Src kinase domain; [15]): -0.4888
Screen (EPHB1 kinase domain): -0.4883
Screen (EPHB2 kinase domain; [14]): -0.8292

GEHSIYSTVNN [CD55_Y266_C267S]
Screen (Fer kinase domain): 1.521
Screen (c-Src kinase domain; [15]): 0.6713
Screen (EPHB1 kinase domain): 0.557
Screen (EPHB2 kinase domain; [14]): 1.232

HDRGNYVQLNM [RECQL4_Y353_R355Q]
Screen (EPHB1 kinase domain): 1.895
Screen (EPHB2 kinase domain; [14]): 1.444

HLEKKYVHRDS [CSF1R_Y708_R710H]
Screen (Fer kinase domain): -0.7741
Screen (c-Src kinase domain; [15]): -3.671
Screen (EPHB1 kinase domain): -1.586
Screen (EPHB2 kinase domain; [14]): -2.097

HNLDFYKQTTN [FGFR3_Y648_K650Q_YF]
Screen (Fer kinase domain): -2.104
Screen (c-Src kinase domain; [15]): -2.522
Screen (EPHB1 kinase domain): -1.421
Screen (EPHB2 kinase domain; [14]): -1.53
